Series [1] has as its system neuro-2a (mouse neuroblastoma cells). Put plainly: Action on neuro-2a: proportion of cells containing outgrown neurites. The class given is cell-based. The settings on record: mean ± S.D. Summed up: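 Read-out is the percentage of neurite-bearing cells (neurite ≥2× long cell diameter), counted microscopically over more than 200 cells per well. Before fixation and staining, neuro-2a cells (1,000/well, DMEM + 10% FCS) were cultured for one day at 37 °C; up to six compound concentrations, three runs each.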

Series [2] concerns mice. Put plainly: Acute toxicity on mice. The class given is in vivo. The settings on record: 24 hours after administration. The protocol: (§1) The acute toxicity of the compounds of the invention was examined by the following method.
(§2) Male ddy-strain 5-week old mice, 4-6- per group, were used as experimental animals. Each of the compounds was intraperitoneally (i.p.), and the toxicity of the compound was assessed 24 hours after the administration.

In series [3] the test system is NS-20Y (mouse neuroblastoma cells). Put plainly: Activity on NS-20Y cells: appearance of neurites. It is filed as cell-based. Summed up: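 Mouse neuroblastoma NS-20Y cells were grown in polyornithine-coated dishes in DMEM with 10 % FCS, 100 units/ml penicillin G sodium and 100 micrograms/ml streptomycin sulfate, at 37° C under 5 % carbon dioxide, and exposed to compound. Cells were fixed with 4 % glutaraldehyde, stained with 0.05 % methylene blue, and the fraction bearing neurites at least twice the cell's long diameter was counted microscopically.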

Series [4] is described as follows: Acute toxicity on mice. The settings on record: mouse, in vivo, ip, 24 hours after administration; read-out: Estimated LD50. It is filed as in vivo. As to the method: as §1, §2

Counter-ions that a name gives are not always drawn. Some results are limits rather than exact numbers.

Consider `CN(C(=O)c1ccccc1)c1ccnc(N2CCC(c3ccccc3)CC2)n1` [Compound 170, 4-(N-methylbenzamino)-2-(4-phenylpiperidino)pyrimidine hydrochloride], for which the “Number of cells having neurites with a length at least two times the diameter of each cell/total number of cells” value (from here on “Number … of each cell/total number of cells”) in series [1] (0.1 mM, hydrochloride) stood at 33.5 ± 2.4%; in series [1] (0.3 mM, hydrochloride), 31.0 ± 4.6%. In series [2], the “Estimated LD50” value was > 1000 mg/kg, i.p.
What is called LD50 is the dose expected to kill half of the subjects tested. With `CNc1cc(C)nc(N2CCC(c3ccccc3)CC2)n1` [Compound 1090], the “Number … of each cell/total number of cells” value stood at 3.7 ± 1.0% in series [1] (0.01 mM), 5.7 ± 0.6% in series [1] (0.03 mM), 12.2 ± 2.5% in series [1] (0.1 mM) and 10.3 ± 0.9% in series [1] (0.3 mM). Moreover, the “Number of cells in which neurites appeared/total number of cells” value is reported as 4/50 in series [3] (24 hours, 0.02 mM); 21/50 in series [3] (24 hours, 0.1 mM); 3/50 in series [3] (48 hours, 0.1 mM). Further, the LD50 at 24 h in series [4] is 500 to 1000 mg/kg.
Regarding `COCC(=O)N(C)c1ccnc(N2CCC(c3ccccc3)CC2)n1.Cc1ccc(S(=O)(=O)O)cc1` [Compound 154-2], the “Number … of each cell/total number of cells” value in series [1] (0.03 mM) is reported as 3.9 ± 0.6%; in series [1] (0.1 mM) it was 8.9 ± 2.4%. In addition, the “Estimated LD50” value in series [2] is recorded as 500-1000 mg/kg, i.p.
In the case of `CC(=O)N(C)c1ccnc(N2CCC(c3ccccc3)CC2)n1` [Compound 208], the “Number … of each cell/total number of cells” value is listed as 7.2 ± 2.3% in series [1] (0.5 mM), 10.6 ± 1.5% in series [1] (1 mM), 11.1 ± 1.2% in series [1] (2 mM) and 8.0 ± 4.0% in series [1] (3 mM). For the same compound, the “Number of cells in which neurites appeared/total number of cells” value is 27/53 in series [3] (24 hours, 0.1 mM); 17/51 in series [3] (24 hours, 0.25 mM); 28/50 in series [3] (48 hours, 0.1 mM). In addition, the LD50 at 24 h in series [4] is more than 1000 mg/kg.
On to `CCN(C(=O)c1ccccc1)c1ccnc(N2CCC(c3ccccc3)CC2)n1` [Compound 176], for which the “Number … of each cell/total number of cells” value in series [1] (0.03 mM) amounted to 5.3 ± 1.9%; in series [1] (0.1 mM) it was 3.2 ± 3.1%. Also, the “Number of cells in which neurites appeared/total number of cells” value in series [3] (24 hours, 0.1 mM) was 8/50; in series [3] (48 hours, 0.02 mM) it was 2/50. The median lethal dose (LD50) at 24 h in series [4] was more than 1000 mg/kg.
As to `CN(C(=O)c1ccccc1)c1ccnc(N2CCN(C(c3ccccc3)c3ccc(Cl)cc3)CC2)n1` (stereo not shown) [Compound 376], the “Number … of each cell/total number of cells” value came to 13.6 ± 1.2% in series [1] (0.03 mM), 14.7 ± 1.5% in series [1] (0.1 mM), 17.2 ± 1.4% in series [1] (0.3 mM) and 16.4 ± 3.0% in series [1] (1 mM). Also, the “Number of cells in which neurites appeared/total number of cells” value in series [3] (24 hours, 0.2 mM) was 2/50; in series [3] (48 hours, 0.1 mM), 2/50. Besides, the LD50 at 24 h in series [4] was 500 to 1000 mg/kg.
For the compound `CC(C)C(=O)N(C)c1ccnc(N2CCC(c3ccccc3)CC2)n1` [Compound 216], the “Number … of each cell/total number of cells” value stood at 3.7 ± 0.4% in series [1] (0.01 mM), 6.3 ± 2.4% in series [1] (0.03 mM) and 26.6 ± 5.6% in series [1] (0.1 mM). The “Number of cells in which neurites appeared/total number of cells” value in series [3] (24 hours, 0.025 mM) was 3/49; in series [3] (48 hours, 0.025 mM), 24/50; in series [3] (48 hours, 0.05 mM), 20/50. The LD50 at 24 h in series [4] was more than 1000 mg/kg.
For the compound `CN(C(=O)c1ccc([N+](=O)[O-])cc1)c1ccnc(N2CCC(c3ccccc3)CC2)n1` [Compound 264], the “Number … of each cell/total number of cells” value in series [1] (0.1 mM) is 5.2 ± 3.1%; in series [1] (0.3 mM) it was 8.7 ± 1.6%; in series [1] (1 mM) it was 15.2 ± 3.2%; in series [1] (3 mM) it was 7.2 ± 1.8%. In addition, the “Number of cells in which neurites appeared/total number of cells” value in series [3] (24 hours, 0.4 mM) is 8/48; in series [3] (48 hours, 0.4 mM) it was 4/50. For the same compound, the LD50 at 24 h in series [4] was 500 to 1000 mg/kg.
Regarding `CN(C(=O)c1ccccc1)c1ccnc(N2CCC(c3ccccc3)CC2)n1` [Compound 169], the “Number … of each cell/total number of cells” value in series [1] (0.1 mM) was found to be 34.1 ± 5.7%; in series [1] (0.3 mM) it was 16.6 ± 5.2%. Further, the “Estimated LD50” value in series [2] is > 1000 mg/kg, i.p.
In the case of `CN(C(=O)c1ccccc1)c1ccnc(N2CCCCC2)n1` [Compound 136], the figures for the “Number … of each cell/total number of cells” value in series [1] (0.1 mM) and in series [1] (0.3 mM) were 11.6 ± 6.3% and 12.1 ± 2.9%, respectively. Further, the “Number of cells in which neurites appeared/total number of cells” value in series [3] (24 hours, 0.1 mM) is on record as 9/50; in series [3] (24 hours, 0.4 mM), 42/50; in series [3] (48 hours, 0.4 mM), 15/50. Also, in series [4], the LD50 at 24 h was more than 1000 mg/kg.
Regarding `CN(C(=O)C1CCCCC1)c1ccnc(N2CCC(c3ccccc3)CC2)n1` [Compound 232], the “Number … of each cell/total number of cells” value in series [1] (0.03 mM) was found to be 3.9 ± 1.8%; in series [1] (0.1 mM), 18.7 ± 5.2%. Also, the “Number of cells in which neurites appeared/total number of cells” value is reported as 2/50 in series [3] (24 hours, 0.025 mM) and 2/49 in series [3] (48 hours, 0.01 mM). Further, in series [4], the LD50 at 24 h was more than 1000 mg/kg.
Turning to `CN(C(=O)c1ccc(Cl)cc1)c1ccnc(N2CCC(c3ccccc3)CC2)n1` [Compound 240], the “Number … of each cell/total number of cells” value was 19.8 ± 5.7% in series [1] (0.03 mM), 38.7 ± 4.5% in series [1] (0.1 mM), 33.2 ± 0.9% in series [1] (0.3 mM) and 30.9 ± 5.9% in series [1] (1 mM). Also, the “Number of cells in which neurites appeared/total number of cells” value is recorded as 4/50 in series [3] (24 hours, 0.2 mM) and 3/50 in series [3] (48 hours, 0.2 mM). In series [4], the LD50 at 24 h was more than 1000 mg/kg.
For `CN(C(=O)c1ccccc1)c1nccc(N2CCC(c3ccccc3)CC2)n1` [Compound 628], the “Number … of each cell/total number of cells” value was 10.2 ± 1.3% in series [1] (0.03 mM), 13.4 ± 3.2% in series [1] (0.1 mM), 12.6 ± 3.2% in series [1] (0.3 mM) and 10.0 ± 3.9% in series [1] (1 mM). Also, the “Number of cells in which neurites appeared/total number of cells” value in series [3] (24 hours, 0.1 mM) is recorded as 9/50; in series [3] (48 hours, 0.1 mM) it was 3/50. Besides, the LD50 at 24 h in series [4] was 500 to 1000 mg/kg.

These data come from patent US5147876A, “2,6-di,2,4,6-, 2,5,6-tri and 2,4,5,6-tetra-substituted pyrimidines, their pharmaceutically acceptable salts, pharmaceutical compositions containing same and their use in the treatment of neurological diseases” (Mitsui Petrochemical Industries, Ltd., priority 1988, dated 1992).
